Results on 38 compounds are retold here after patent US20230219962A1, “PYRAZOLO[4,3-d]PYRIMIDINE DERIVATIVES AND METHODS OF USE THEREOF FOR THE TREATMENT OF CELLULAR PROLIFERATIVE DISORDERS” (Merck Sharp & Dohme LLC, priority 2020, published 2023).

Bounds are passed on as bounds.

The target of one assay is T1, hTLR7 (Homo sapiens, UniProt Q9NYK1).
T1 construct: host or cells: HEK-Blue hTLR7 cells (HEK293-derived, own knowledge)
T1 sequence (Q9NYK1 27-1049): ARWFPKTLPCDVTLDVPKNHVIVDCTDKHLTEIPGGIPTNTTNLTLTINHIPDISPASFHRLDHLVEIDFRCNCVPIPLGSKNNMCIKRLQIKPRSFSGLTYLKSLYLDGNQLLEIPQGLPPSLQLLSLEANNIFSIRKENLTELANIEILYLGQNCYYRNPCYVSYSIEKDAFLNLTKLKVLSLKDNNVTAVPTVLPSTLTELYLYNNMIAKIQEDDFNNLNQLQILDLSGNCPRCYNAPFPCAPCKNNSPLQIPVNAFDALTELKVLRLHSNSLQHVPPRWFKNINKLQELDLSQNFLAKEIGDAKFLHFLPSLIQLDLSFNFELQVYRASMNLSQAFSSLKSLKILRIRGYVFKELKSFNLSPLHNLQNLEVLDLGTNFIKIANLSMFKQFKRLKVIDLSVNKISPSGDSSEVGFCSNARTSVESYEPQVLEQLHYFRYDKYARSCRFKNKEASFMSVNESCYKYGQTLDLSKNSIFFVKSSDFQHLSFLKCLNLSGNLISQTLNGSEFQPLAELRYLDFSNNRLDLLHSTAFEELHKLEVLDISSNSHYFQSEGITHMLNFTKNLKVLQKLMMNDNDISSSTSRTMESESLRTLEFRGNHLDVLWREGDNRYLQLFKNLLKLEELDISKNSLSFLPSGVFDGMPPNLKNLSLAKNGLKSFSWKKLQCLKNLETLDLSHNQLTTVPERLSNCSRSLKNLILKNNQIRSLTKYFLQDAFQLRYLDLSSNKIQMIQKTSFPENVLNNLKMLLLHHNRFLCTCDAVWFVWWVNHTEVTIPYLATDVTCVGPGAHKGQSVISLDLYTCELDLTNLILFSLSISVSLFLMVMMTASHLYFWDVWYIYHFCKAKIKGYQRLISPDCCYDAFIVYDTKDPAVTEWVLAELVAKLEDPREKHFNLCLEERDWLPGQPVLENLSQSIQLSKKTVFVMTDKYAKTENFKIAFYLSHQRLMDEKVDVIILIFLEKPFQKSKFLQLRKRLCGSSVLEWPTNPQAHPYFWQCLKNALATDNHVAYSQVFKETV
In words: Human TLR7 Reporter Assay. It is filed as cell-based. The conditions noted are these: HEK-Blue hTLR7 cells, 16 hours, normalized to CL097 (6 μM) and DMSO. An outline of the steps:
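HEK-Blue hTLR7 reporter cells (20,000/well) incubated 16 h at 37 °C with 10-point 3-fold compound dilutions; SEAP read by absorbance at 620 nm. Effects normalized between CL097 (6 μM) and DMSO controls; EC50 from 4-parameter fit.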
(A reporter such as luciferase makes a cellular process visible.)

The target in a further assay is T2, hTLR8 (Homo sapiens, UniProt Q9NR97).
T2 construct: host or cells: HEK-Blue hTLR8 cells (HEK293-derived, own knowledge)
T2 sequence (Q9NR97 27-1041): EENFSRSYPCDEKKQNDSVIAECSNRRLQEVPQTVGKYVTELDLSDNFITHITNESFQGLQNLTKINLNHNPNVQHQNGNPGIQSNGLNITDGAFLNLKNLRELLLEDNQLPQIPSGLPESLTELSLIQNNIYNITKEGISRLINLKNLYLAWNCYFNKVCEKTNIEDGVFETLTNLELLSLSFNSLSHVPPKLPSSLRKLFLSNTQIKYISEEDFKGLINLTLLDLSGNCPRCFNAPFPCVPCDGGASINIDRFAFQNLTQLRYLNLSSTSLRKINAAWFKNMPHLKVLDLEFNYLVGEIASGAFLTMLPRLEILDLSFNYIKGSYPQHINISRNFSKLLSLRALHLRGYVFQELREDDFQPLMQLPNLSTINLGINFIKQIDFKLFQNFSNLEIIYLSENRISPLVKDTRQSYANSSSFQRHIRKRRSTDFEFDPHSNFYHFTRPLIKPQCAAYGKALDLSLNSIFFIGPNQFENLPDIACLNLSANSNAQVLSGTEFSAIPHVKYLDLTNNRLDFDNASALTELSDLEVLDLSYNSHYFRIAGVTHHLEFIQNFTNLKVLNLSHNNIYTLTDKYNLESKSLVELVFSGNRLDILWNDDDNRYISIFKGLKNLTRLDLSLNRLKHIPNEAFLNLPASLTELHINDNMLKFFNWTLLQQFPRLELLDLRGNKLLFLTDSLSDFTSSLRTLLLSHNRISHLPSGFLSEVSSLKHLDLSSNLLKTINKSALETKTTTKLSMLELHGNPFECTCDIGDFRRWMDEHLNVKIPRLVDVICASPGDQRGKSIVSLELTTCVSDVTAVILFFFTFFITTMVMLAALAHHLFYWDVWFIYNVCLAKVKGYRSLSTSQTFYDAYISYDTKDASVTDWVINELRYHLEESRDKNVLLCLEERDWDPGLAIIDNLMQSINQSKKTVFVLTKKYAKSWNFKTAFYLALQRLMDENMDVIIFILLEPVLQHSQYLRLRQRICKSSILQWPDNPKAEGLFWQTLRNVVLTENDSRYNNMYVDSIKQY
In words: Human TLR8 Reporter Assay. It is filed as cell-based. The following applies: HEK-Blue hTLR8 cells, 16 hours, normalized to tl8-506 (1 μM) and DMSO. An outline of the steps:
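HEK-Blue hTLR8 cells (20,000/well) incubated 16 h at 37 °C with 10-point 3-fold compound dilutions in HEK-Blue Detection medium; reporter read as absorbance at 620 nm. Effects normalized between DMSO and tl8-506 (1 μM); EC50 from 4-parameter fit.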

Broadly, the EC50 is the midpoint of the concentration-response curve. Low values mean a more potent agent, high ones a less potent agent. Regarding `CCCCNc1nc(N)nc2cn(Cc3ccc(N4CC5(CN(CCN6C(=O)C=CC6=O)C5)C4)cc3OC)nc12` [Compound 125], the EC50 worked out at 1.74 µM on hTLR7 and 18.7 µM at hTLR8.
As to `CCCCNc1nc(N)nc2cn(Cc3cc(N4CCN(C(=O)C5CCC(CN6C(=O)C=CC6=O)CC5)CC4)ccc3OC)nc12` (stereo not shown) [Compound 70], the EC50 at hTLR7 is greater than 1.11 µM; on hTLR8, 0.908 µM.
On the same counts, the results for `CCCCNc1nc(N)nc2cn(Cc3c(OC)cc(NCCN)cc3OC)nc12` [Compound 114] are 0.529 µM and 4.49 µM.
With `CCCCNc1nc(N)nc2cn(Cc3c(OC)ccc(CN4C(=O)C=CC4=O)c3OC)nc12` [Compound 95], the values for the EC50 on hTLR7 and at hTLR8 were 3.35 µM and 4.33 µM, respectively.
On the same counts, the results for `CCCCNc1nc(N)nc2cn(Cc3cc(C)no3)nc12` [Compound 171] are 0.516 µM and 2.52 µM.
With `CCCCNc1nc(N)nc2cn(Cc3ccc(C(C)NC)cc3OC)nc12` (stereo not shown) [Compound 193], the EC50 worked out at 0.0577 µM on hTLR7 and 0.106 µM at hTLR8.
Take `CCC[C@@H](C)Nc1nc(N)nc2cn(Cc3c(OC)cc(CNC)cc3OC)nc12` [Compound 189]: the EC50 turned out to be 0.09 µM at hTLR7 and 0.29 µM on hTLR8.
As to `CCCCNc1nc(N)nc2cn(Cc3ccc(OC)cc3)nc12` [Compound 38], the EC50 on hTLR7 stood at 0.263 µM; on hTLR8, 1.69 µM.
On the same counts, the results for `CCCCNc1nc(N)nc2cn(Cc3c(OC)cc(CN4CC(N)C4)cc3OC)nc12` [Compound 192] are 0.653 µM and 1.16 µM.
On the same counts, the results for `CCCCNc1nc(N)nc2cn(Cc3ccnn3CC)nc12` [Compound 177] are 0.681 µM and 2.81 µM.
On the same counts, the results for `CCCCNc1nc(N)nc2cn(Cc3c(OC)cc(SC[C@H](N)C(=O)O)cc3OC)nc12` [Compound 230] are 0.898 µM and 8.84 µM.
In the case of `CCCCNc1nc(N)nc2cn(Cc3cc(CN)ccc3OC)nc12` [Compound 146], the EC50 on hTLR7 was found to be 0.628 µM; on hTLR8, 0.637 µM.
On to `C=CCN(C)Cc1cc(OC)c(Cn2cc3nc(N)nc(N[C@@H](C)CCC)c3n2)c(OC)c1` [Compound 183], for which the EC50 worked out at 0.0308 µM at hTLR7 and 0.38 µM at hTLR8.
On to `CCCCNc1nc(N)nc2cn(Cc3c(OC)cc(N)cc3OC)nc12` [Compound 65], for which the figures for the EC50 at hTLR7 and on hTLR8 were 0.119 µM and 1.02 µM, respectively.
As to `CCCCNc1nc(N)nc2cn(Cc3cc(C)nn3C)nc12` [Compound 173], the values for the EC50 at hTLR7 and at hTLR8 were 0.246 µM and 2.73 µM, respectively.
On the same counts, the results for `CCCCNc1nc(N)nc2cn(Cc3ccc(CN4CCNCC4)cc3)nc12` [Compound 112] are 1.57 µM and 19.9 µM.
On the same counts, the results for `CCCCNc1nc(N)nc2cn(Cc3cncnc3OC)nc12` [Compound 106] are 0.311 µM and 1.7 µM.
On the same counts, the results for `CCCCC(CCC)Nc1nc(N)nc2cn(Cc3ccccc3OC)nc12` (stereo not shown) [Compound 18] are 0.315 µM and greater than 29.9 µM.
`COc1cccc(OC)c1Cn1cc2nc(N)nc(NC(C)C)c2n1` [Compound 27]: the EC50 on hTLR7 turned out to be 1.12 µM; on hTLR8, 4.38 µM.
For `COc1cccc(OC)c1Cn1cc2nc(N)nc(NCCCO)c2n1` [Compound 47], the figures for the EC50 at hTLR7 and at hTLR8 were 8.59 µM and greater than 29.9 µM, respectively.
On the same counts, the results for `COc1cccc(OC)c1Cn1cc2nc(N)nc(NCC(C)C)c2n1` [Compound 50] are 0.843 µM and greater than 29.9 µM.
Take `CCCCNc1nc(N)nc2cn(Cc3ccc(CN4CCN(C(=O)CCN5C(=O)C=CC5=O)CC4)cc3)nc12` [Compound 119]: the EC50 amounted to 6.65 µM on hTLR7 and 22.5 µM at hTLR8.
Take `CCC[C@@H](CO)Nc1nc(N)nc2cn(Cc3c(OC)cc(CN(C)C)cc3OC)nc12` [Compound 199]: the EC50 turned out to be 0.108 µM on hTLR7 and 0.0399 µM at hTLR8.
For the compound `CCCCNc1nc(N)nc2cn(Cc3ccc(CCNC)cc3OC)nc12` [Compound 147], the EC50 at hTLR7 worked out at 0.18 µM; on hTLR8, 0.265 µM.
On the same counts, the results for `CCC[C@@H](CO)Nc1nc(N)nc2cn(Cc3c(OC)cc(CN(C)CCNC(=O)c4cccnc4)cc3OC)nc12` [Compound 218] are 6.36 µM and 1.49 µM.
Consider `CCCCNc1nc(N)nc2cn(Cc3ncccn3)nc12` [Compound 122], for which the EC50 at hTLR7 was 0.288 µM; on hTLR8, 1.4 µM.
In the case of `CCCCNc1nc(N)nc2cn(Cc3ccccc3OC(F)F)nc12` [Compound 179], the EC50 at hTLR7 stood at 0.226 µM; at hTLR8 it was 1.89 µM.
As for `CCCCNc1nc(N)nc2cn(Cc3c(OC)cc(CNC(=O)CCN4C(=O)C=CC4=O)cc3OC)nc12` [Compound 96], the EC50 worked out at 1.97 µM on hTLR7 and 7.84 µM at hTLR8.
On the same counts, the results for `CCCCNc1nc(N)nc2cn(Cc3c(OC)cc(CN4CCN(C(=O)C5CCC(CN6C(=O)C=CC6=O)CC5)CC4)cc3OC)nc12` (stereo not shown) [Compound 74] are 3.33 µM and greater than 29.9 µM.
For the compound `CCCCNc1nc(N)nc2cn(Cc3c(OC)cc(N4CCNCC4)cc3OC)nc12` [Compound 64], the concentration giving a half-maximal response (EC50) was 0.518 µM on hTLR7 and 0.348 µM at hTLR8.
As for `CCCCNc1nc(N)nc2cn(Cc3c(OC)cccc3OCCCCC(=O)OC)nc12` [Compound 207], the EC50 on hTLR7 is 0.806 µM; on hTLR8 it was 2.34 µM.
Regarding `CCCCNc1nc(N)nc2cn(Cc3cncn3C3CC3)nc12` [Compound 182], the EC50 on hTLR7 turned out to be 0.929 µM; on hTLR8, 3.36 µM.
With `CCCCNc1nc(N)nc2cn(Cc3ccc(C4CCNC4)cc3OC)nc12` (stereo not shown) [Compound 237], the EC50 at hTLR7 was 0.616 µM; at hTLR8 it was 7.25 µM.
For `CCCCNc1nc(N)nc2cn(Cc3ccc(CN4C(=O)C=CC4=O)cc3OC)nc12` [Compound 104], the EC50 at hTLR7 amounted to 0.292 µM; on hTLR8, 2.04 µM.
Consider `CCCCNc1nc(N)nc2cn(Cc3cc(OC)c(CN(C)CCCN4C(=O)C=CC4=O)cc3OC)nc12` [Compound 143], for which the results for the EC50 at hTLR7 and on hTLR8 were 0.36 µM and greater than 3.33 µM, respectively.
With `CCCCNc1nc(N)nc2cn(Cc3ccc4c(c3)CCC4N)nc12` (stereo not shown) [Compound 235], the EC50 was 0.361 µM on hTLR7 and 2.47 µM at hTLR8.
Regarding `CCCNC(C)c1ccc(Cn2cc3nc(N)nc(N[C@H](CO)CCC)c3n2)c(OC)c1` (stereo partly shown) [Compound 232], the EC50 on hTLR7 is 0.363 µM; on hTLR8, 0.0781 µM.
Turning to `CCCCNc1nc(N)nc2cn(Cc3ccc(CN4CC(CNC)C4)cc3OC)nc12` [Compound 145], the values for the EC50 at hTLR7 and at hTLR8 were 2.27 µM and 6.32 µM, respectively.
